From patent US20100113550A1, “New Crystal Forms” (BIAL - PORTELA AND CA, S.A., priority 2006, published 2010)
“Also recorded” adds a separate entry of the source. Where two headings read alike, the source gives them in different places.

Assays:
Type in all cases: physicochemical
[1] = Approximate solubilities (solvent added until a solution forms); settings: for Solubility by kind of solvent (in words): organic solvents and aqueous mixtures; for solubility: read-out: Solubility (approximate)
From the text: Approximate solubilities of compound 1, Form A in aqueous mixtures containing high concentrations of organic solvents are given in Table 1. [table]

[2] = RH stability: storage at controlled relative humidity or drying, checked by XRPD and for deliquescence; settings: high relative humidities, long periods of time
From the text: Form A samples were stored at lower relative humidities of approximately 9-11, 23 and 32% RH and analyzed by XRPD and Karl-Fischer titration analysis after four weeks (Tables 30 and 31). The samples appeared to be Form A by XRPD. […] Note that the water content in the samples at 23 and 32% RH was slightly higher compared to the initial batch of Form A.
Form X samples were stored at relative humidities of approximately 43, 75 and 90% RH and analyzed by XRPD and Karl-Fischer titration analysis after five weeks (Tables 34 and 35).

[3] = Coulometric Karl Fischer titration for water determination
Procedure: Coulometric Karl Fischer (KF) analysis for water determination was performed using a Mettler Toledo DL39 Karl Fischer titrator. Samples were placed in the KF titration vessel containing approximately Hydranal—Coulomat AD and mixed for 60 seconds to ensure dissolution. The sample was then titrated by means of a generator electrode which produces iodine by electrochemical oxidation: 2I−=>I2+2e. Three replicates were obtained to ensure reproducibility. A NIST-traceable water standard (Hydranal Water Standard 10.0) was analyzed to check the operation of the coulometer. Data were collected and analyzed using LabX Pro Titration v2.10.000.

[4] = RH stability: storage at controlled relative humidity or drying, checked by XRPD and for deliquescence
[5] = Interconversion studies of Forms A and C (slurries, XRPD)
Procedure: A slurry of compound 1, Form A, was prepared in a given solvent and loaded on an orbit shaker at either ambient or elevated temperature for at least 1 day. The liquid phase of the slurry was drawn off with a pipette and filtered through a 0.2-μm filter. A slurry containing compound 1 forms A and C was prepared using the filtered liquid phase from the Form A slurry. The mixture was then loaded on an orbit shaker in a sealed vial at either ambient or elevated temperature for 1 or 7 days. The solids were isolated by vacuum filtration or by drawing the liquid phase off with a pipette and allowing the solids to air dry at ambient conditions prior to analysis. The resulting Forms were characterised by XRPD.

[6] = acetone:water 99:1, hydrochloride

SMILES: Cl.NCCc1c[nH]c(=S)n1[C@H]1COc2c(F)cc(F)cc2C1 [Form B, (R)-5-(2-Aminoethyl)-1-(6,8-difluorochroman-3-yl)-1,3-dihydroimidazole-2-thione hydrochloride]
- Solubility (approximate) [1, 6]: <29000 µg/mL
- Solubility (approximate) ([1]; acetone, hydrochloride): 2000 µg/mL
- Solubility (approximate) ([1]; acetonitrile:water 95:5, hydrochloride): <27000 µg/mL
- Solubility (approximate) ([1]; ethanol:water 99:1, hydrochloride): <28000 µg/mL
- Solubility (approximate) ([1]; ethanol, hydrochloride): 4000 µg/mL
- Solubility (approximate) ([1]; methanol, hydrochloride): 15000 µg/mL
- Solubility by kind of solvent (in words) ([1]; hydrochloride): higher solubilities in aqueous solvent mixtures compared to organic solvents
- Stability under high relative humidities [2]: remain stable
- Change in the water content on storage ([3]; after 2 days, 3 weeks and 8 weeks at both 75 and 90% RH): No significant changes
- % water ([3]; ~55% RH, 8 days): 5.34%
- Moles of water ([3]; ~55% RH, 8 days): 1.1 mol
- % water ([3]; ~75% RH, 3 weeks): 6.02%
- Moles of water ([3]; ~75% RH, 3 weeks): 1.24 mol
- % water ([3]; ~75% RH, 8 weeks): 6.12%
- Moles of water ([3]; ~75% RH, 8 weeks): 1.26 mol
- % water ([3]; ~75% RH, 2 days): 6.23%
- Moles of water ([3]; ~75% RH, 2 days): 1.28 mol
- % water ([3]; ~90% RH, 3 weeks): 5.99%
- Moles of water ([3]; ~90% RH, 3 weeks): 1.23 mol
- % water ([3]; ~90% RH, 8 weeks): 6.46%
- Moles of water ([3]; ~90% RH, 8 weeks): 1.33 mol
- % water ([3]; ~90% RH, 2 days): 6.70%
- Moles of water ([3]; ~90% RH, 2 days): 1.39 mol
- Stability at relative humidity ([4]; 90% relative humidity): stable
- Deliquescence ([4]; 90% relative humidity, after 10 days): no deliquescence was observed
- RH stability, XRPD patterns ([4]; after 2 days, 3, 7 and 8 weeks at both 75 and 90% RH): did not change
- Form conversion upon desorption (drying) ([4]; drying): convert back to Form A
- Weight change ([4]; ~55% RH, 8 days): 10.7 mg
- Weight change, % ([4]; ~55% RH, 8 days): 9.5%
- Observations ([4]; ~55% RH, 8 days (Table 32)): looks dry
- Observations ([4]; ~55% RH, 8 days (Table 33)): looks dry
- Observations ([4]; ~75% RH, 3 weeks (Table 32)): looks dry
- Observations ([4]; ~75% RH, 3 weeks (Table 33)): looks dry
- Observations ([4]; ~75% RH, 7 weeks): looks dry
- Observations ([4]; ~75% RH, 8 weeks (Table 32)): looks dry
- Observations ([4]; ~75% RH, 8 weeks (Table 33)): looks dry
- Weight change ([4]; ~75% RH, 2 days): 11.0 mg
- Weight change, % ([4]; ~75% RH, 2 days): 4.5%
- Observations ([4]; ~90% RH, 3 weeks (Table 32)): looks dry
- Observations ([4]; ~90% RH, 3 weeks (Table 33)): looks dry
- Observations ([4]; ~90% RH, 7 weeks): looks dry
- Observations ([4]; ~90% RH, 8 weeks (Table 32)): looks dry
- Observations ([4]; ~90% RH, 8 weeks (Table 33)): looks dry
- Weight change ([4]; ~90% RH, 2 days): 11.6 mg
- Weight change, % ([4]; ~90% RH, 2 days): 4.6%

SMILES: Cl.NCCc1c[nH]c(=S)n1[C@H]1COc2c(F)cc(F)cc2C1 [Form C, (R)-5-(2-Aminoethyl)-1-(6,8-difluorochroman-3-yl)-1,3-dihydroimidazole-2-thione hydrochloride]
- solubility ([1]; 1,4-dioxane, organic solvent or mixture, 1,4-dioxane): < 1000 µg/mL
- solubility ([1]; 1,4-dioxane:water 9:1, organic solvent or mixture, 1,4-dioxane:water 9:1): > 22000 µg/mL
- Solubility (approximate) ([1]; 1,4-dioxane:water 99:1, hydrochloride): <22000 µg/mL
- Solubility (approximate) ([1]; 2,2,2-trifluoroethanol, hydrochloride): 1700 µg/mL
- solubility ([1]; THF:water 9:1, organic solvent or mixture, THF:water 9:1): > 23000 µg/mL
- solubility ([1]; THF:water 99:1, organic solvent or mixture, THF:water 99:1): < 24000 µg/mL
- Solubility (approximate) ([1]; acetone:water 90:10 (9:1)): >23000 µg/mL
- Solubility (approximate) [1, 6]: <24000 µg/mL
- Solubility (approximate) ([1]; acetone, hydrochloride): <1000 µg/mL
- solubility ([1]; acetonitrile, organic solvent or mixture, acetonitrile): < 1000 µg/mL
- solubility ([1]; acetonitrile:water 4:1, organic solvent or mixture, acetonitrile:water 4:1): > 40000 µg/mL
- Solubility (approximate) ([1]; acetonitrile:water 90:10 (9:1), hydrochloride): <25000 µg/mL
- Solubility compared with the other forms (in words) ([1]; comparison between forms): lower compared to the solubilities of Form A
- solubility ([1]; dichloromethane, organic solvent or mixture, dichloromethane): < 1000 µg/mL
- solubility ([1]; diethyl ether, organic solvent or mixture, diethyl ether): < 1000 µg/mL
- Solubility (approximate) ([1]; ethanol:water 90:10 (9:1), hydrochloride): <22000 µg/mL
- Solubility (approximate) ([1]; ethanol, hydrochloride): 2000 µg/mL
- solubility ([1]; ethyl acetate, organic solvent or mixture, ethyl acetate): < 1000 µg/mL
- solubility ([1]; hexafluoro isopropanol, organic solvent or mixture, hexafluoro isopropanol): 1000 µg/mL
- solubility ([1]; hexane, organic solvent or mixture, hexane): < 1000 µg/mL
- Solubility (approximate) ([1]; iso-propanol, hydrochloride): <1000 µg/mL
- Solubility (approximate) ([1]; methanol, hydrochloride): 21000 µg/mL
- Solubility (approximate) ([1]; methyl ethyl ketone, hydrochloride): <1000 µg/mL
- solubility ([1]; n-propanol, organic solvent or mixture, n-propanol): < 1000 µg/mL
- Solubility by kind of solvent (in words) ([1]; hydrochloride): poorly soluble in most organic solvents, except in methanol; also recorded: slightly soluble in ethanol, hexafluoroisopropanol, 2,2,2-trifluoroethanol, and some aqueous mixtures
- Solubility (approximate) ([1]; tetrahydrofuran (THF), hydrochloride): <1000 µg/mL
- solubility ([1]; toluene, organic solvent or mixture, toluene): < 1000 µg/mL
- solubility ([1]; water): 23000 µg/mL
- Stability under high relative humidities [2]: remain stable
- Relative thermodynamic stability of the forms ([5]; interconversion in ethanol and acetone:water 99:1): more thermodynamically stable than Form A
- Hygroscopicity [4]: non-hygroscopic
- RH stability, XRPD result ([4]; 95% relative humidity, ~2 months): did not change
- Deliquescence ([4]; approximately 65% relative humidity, one week): did not deliquesce
- Deliquescence ([4]; approximately 90% relative humidity, 11 days): did not deliquesce

SMILES: Cl.NCCc1c[nH]c(=S)n1[C@H]1COc2c(F)cc(F)cc2C1 [Forms A and C, (R)-5-(2-Aminoethyl)-1-(6,8-difluorochroman-3-yl)-1,3-dihydroimidazole-2-thione hydrochloride]
- Form resulting from interconversion slurry ([5]; 1-day slurries at room temperature, ethanol and acetone:water 99:1): mixture of Forms C and B, with Form B as a minor component
- Form resulting from interconversion slurry ([5]; acetone:water 99:1, 40° C., 1-day slurry): mixture of Forms C and A, with Form A as a minor component
- Form resulting from interconversion slurry ([5]; after one week, ambient temperature and 40° C.): Form C
- Form resulting from interconversion slurry ([5]; ethanol, 40° C., 1-day slurry): Form C
